Experimental data taken from US7476670B2, “Purine derivatives, method for preparing, pharmaceutical compositions and novel use” (Aventis Pharma S.A., priority 2003, dated 2009).

Key:
CaCiv1 = CaCiv1 (Candida albicans, UniProt A0A1D8PH53); assay: Assay for inhibition of CIV-CDK (CIV1) activity; type: biochemical
From the text: 1) Assay for Inhibition of CIV-CDK (CIV1) Activity
a) Preparation of the Reagents

SRC kinase = molecular target: T1, SRC kinase (Homo sapiens, UniProt P12931); assay: Assay for inhibition of SRC kinase activity; type: biochemical; conditions: fluorescence polarization, read-out: percentage inhibition at 20 μM
T1 construct: purchased Upstate Biotechnology 14-117
Summary of the method: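 Enzyme (12 U/ml final) preincubated 5 min with inhibitor, then PolyGluTyr 4/1 (150 ng/ml) and ATP (5 μM) added in HEPES/NaOH pH 7.6 with MgCl2, MnCl2 and Na2VO4. After 20 min at ambient temperature, phosphopeptide detected by fluorescence polarization with labelled anti-phosphopeptide antibody; percent inhibition reported at 20 μM.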

Casein Kinase II = assay: Assay for inhibition of casein kinase II activity; type: biochemical; conditions: [33P]ATP
Method: The inhibition of the kinase activity is determined by measuring the phosphorylation of its substrate peptide.
The assay is carried out in a final volume of 50 μl.
The incubation buffer is as follows:
• 30 mM MES pH 6.9 • 15 mM MgCl2 • 195 mM KCl • 7.25 mM DTT 5 μl of the 10-times concentrated inhibitor are added to 25 μl of incubation buffer containing 1 U/μl final concentration of the enzyme (Tebu, SE-124); 10 μl of incubation buffer containing 60 μM final concentration of peptide substrate are then added, and, finally, 10 μl of incubation buffer containing 25 μM ATP and radiolabeled ATP, [^33P]ATP (0.25 μCi), are added. The reaction is stopped after incubation for 30 minutes at ambient temperature. • Results obtained expressed as percentage inhibition at 20 μM • Example 8 93% • Example 30 97% 8) Assay for Inhibition for CAN Kinase II Activity

FAK = FAK (Homo sapiens, UniProt Q05397); assay: Assay for inhibition of FAK activity (autophosphorylation); type: biochemical; conditions: fluorescence polarization, ATP 1 μM; read-out: IC50s expressed as micromolar
Method: The inhibition of the kinase activity is determined by fluorescence polarization, the autophosphorylation of FAK is detected by adding an anti-phosphoprotein antibody coupled to a fluorescent label.
The assay is carried out in a final volume of 30 μl; all the reagents are prepared in a buffer: • 50 mM HEPES pH 7.5 • 0.03% triton X100 • 10 mM MgCl2 • 5% Glycerol • 1 mM DTT 10 μl of the 10-times concentrated inhibitor are added to 5 μl of enzyme (100 ng final concentration), and 5 μl of incubation buffer and 10 μl of ATP (1 μM final concentration) are added.

Candida albicans = assay: Minimum inhibitory concentration in liquid medium, micro method (NCCLS M27-A); type: cell-based; conditions: at least 80% inhibition of growth, read after 24-48 h at 37° C., RPMI 1640, read-out: MIC Candida albicans
Method: (§1) The assay is carried out in a final volume of 40 μl; all the reagents are prepared in a buffer: • 50 mM HEPES pH 7.5 • 0.03% triton X100 • 10 mM MgCl2 • 5% Glycerol • 1 mM DTT 10 μl of the 10-times concentrated inhibitor are added to 5 μl of enzyme (75 ng final concentration), and 5 μl of peptide (1 μM final concentration), then 2.5 μl of incubation buffer containing 40 μM ATP and 2.5 μl of radiolabeled ATP, [^33P]ATP (500 nCi), are added. After incubation for 15 minutes at ambient temperature, 10 μl of incubation buffer containing 192 nM of substrate. […] Reference method for broth dilution antifungal susceptibility testing of yeasts. Approved Standard M27-A. NCCLS, Villanova, Pa.); the minimum concentration with which a visible decrease is observed in the cloudiness of the cell growth (at least 80% compared to a control without product) is the Minimum Inhibitory Concentration (MIC) of the antifungal agent with respect to the strain tested.
(§2) RPMI 1640 medium (liquid) without L-glutamine is supplemented with L-glutamine (0.3 g/l or 10.5 ml of a solution at 200 mM) and buffered with 34.54 g/l (0.165 M) of morpholinepropanesulfonic acid (MOPS). The medium is sterilized by filtration. 100 μl of RPMI medium are distributed into each well of a 96-well plate. The appropriate volume. of the antifungal solution is distributed in the first column of the microplate and supplemented with 200 μl of medium. Doubling dilutions are made so as to establish a range of 11 concentrations in each line of the microplate. The 12th well of each row will serve as a growth control. The cell suspension is prepared from a culture (liquid or agar) or from a frozen vial, and is diluted in RPMI medium so as to obtain a cell suspension at 5×10^3−2×10^4 cells/ml. 100 μl of the cell suspension are distributed in the microplate. For all species of Candida, the MIC is read after 24-48 h, and for Cryptococcus and Aspergillus after 48-72 h, of incubation at 37° C. in a normal atmosphere. The MIC is read by visual reading, determining the well which contains the lowest dose of antifungal agent which causes at least 80% inhibition of the growth of the fungus.

Candida glabrata = assay: as above; type: cell-based; conditions: Nakaseomyces glabratus; at least 80% inhibition of growth, read after 24-48 h at 37° C., RPMI 1640; read-out: MIC Candida glabrata
Method: as §1, §2

T1 sequence (P12931 whole entry): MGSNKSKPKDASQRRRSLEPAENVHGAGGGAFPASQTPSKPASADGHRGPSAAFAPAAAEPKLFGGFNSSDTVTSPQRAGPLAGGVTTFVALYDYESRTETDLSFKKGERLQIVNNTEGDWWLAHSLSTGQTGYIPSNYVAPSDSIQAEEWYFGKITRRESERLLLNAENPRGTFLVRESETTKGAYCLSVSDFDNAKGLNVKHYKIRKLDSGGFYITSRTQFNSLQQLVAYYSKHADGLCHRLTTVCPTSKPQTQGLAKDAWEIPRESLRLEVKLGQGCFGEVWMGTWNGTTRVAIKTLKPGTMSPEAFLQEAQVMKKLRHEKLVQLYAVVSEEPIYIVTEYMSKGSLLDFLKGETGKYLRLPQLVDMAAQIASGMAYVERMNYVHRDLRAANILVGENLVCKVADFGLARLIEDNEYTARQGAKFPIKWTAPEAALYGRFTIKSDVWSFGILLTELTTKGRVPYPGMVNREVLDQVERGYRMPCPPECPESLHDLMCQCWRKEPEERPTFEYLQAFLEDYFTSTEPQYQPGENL
Chain of FAK (Q05397 whole entry, species assumed): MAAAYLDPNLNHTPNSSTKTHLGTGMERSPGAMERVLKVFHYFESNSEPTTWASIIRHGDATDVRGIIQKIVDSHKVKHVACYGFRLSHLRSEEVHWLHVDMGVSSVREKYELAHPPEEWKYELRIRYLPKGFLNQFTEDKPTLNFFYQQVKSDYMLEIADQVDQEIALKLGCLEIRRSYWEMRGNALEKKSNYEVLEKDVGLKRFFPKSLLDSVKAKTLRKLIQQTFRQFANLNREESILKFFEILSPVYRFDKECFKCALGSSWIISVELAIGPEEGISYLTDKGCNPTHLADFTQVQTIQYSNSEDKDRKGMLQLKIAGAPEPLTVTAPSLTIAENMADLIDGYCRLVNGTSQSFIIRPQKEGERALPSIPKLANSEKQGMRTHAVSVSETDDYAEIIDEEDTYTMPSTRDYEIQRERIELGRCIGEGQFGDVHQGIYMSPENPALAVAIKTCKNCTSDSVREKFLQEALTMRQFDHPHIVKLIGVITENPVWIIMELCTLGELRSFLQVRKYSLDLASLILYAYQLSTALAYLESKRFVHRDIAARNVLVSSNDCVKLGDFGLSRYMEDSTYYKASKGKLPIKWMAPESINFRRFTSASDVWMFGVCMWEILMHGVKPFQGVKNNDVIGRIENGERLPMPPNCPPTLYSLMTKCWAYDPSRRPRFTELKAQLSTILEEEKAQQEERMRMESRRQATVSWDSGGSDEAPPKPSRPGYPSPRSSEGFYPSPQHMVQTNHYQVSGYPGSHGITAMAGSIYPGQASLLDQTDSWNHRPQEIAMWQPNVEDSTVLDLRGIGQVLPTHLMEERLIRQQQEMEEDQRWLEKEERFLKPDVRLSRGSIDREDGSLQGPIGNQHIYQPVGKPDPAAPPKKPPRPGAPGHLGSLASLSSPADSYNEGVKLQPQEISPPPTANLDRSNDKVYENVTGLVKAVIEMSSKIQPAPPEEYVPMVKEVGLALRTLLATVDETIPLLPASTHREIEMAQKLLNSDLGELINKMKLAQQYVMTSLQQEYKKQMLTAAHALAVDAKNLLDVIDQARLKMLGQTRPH
Chain of CaCiv1 (A0A1D8PH53 entry or part of it): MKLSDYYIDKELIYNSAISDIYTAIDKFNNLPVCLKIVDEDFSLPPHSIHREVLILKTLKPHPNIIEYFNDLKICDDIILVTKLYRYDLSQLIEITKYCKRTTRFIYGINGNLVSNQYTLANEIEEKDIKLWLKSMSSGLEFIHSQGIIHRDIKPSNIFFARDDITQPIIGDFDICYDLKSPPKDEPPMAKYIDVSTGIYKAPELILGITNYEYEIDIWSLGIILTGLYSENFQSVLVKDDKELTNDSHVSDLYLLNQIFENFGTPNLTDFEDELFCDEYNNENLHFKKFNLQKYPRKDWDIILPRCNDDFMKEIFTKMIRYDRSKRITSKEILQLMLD

| Compound | IC50 (CaCiv1) | inhibition at 20 µM (SRC kinase) | percentage inhibition at 20 μM (Casein Kinase II) | IC50 (FAK) | MIC (Candida albicans) | MIC (Candida glabrata) |
| --- | --- | --- | --- | --- | --- | --- |
| Cl.Cl.N[C@H]1CC[C@H](Nc2nc(N3CCc4cc([N+](=O)[O-])ccc43)c3nc[nH]c3n2)CC1 [Example 30, Trans-N-[6-(2,3-dihydro-5-nitro-1H-indol-1-yl)-9H-purin-2-yl]-1,4-cyclohexanediamine dihydrochloride] | 100 nM | 99% | 97% | 1 µM | 32 µg/mL | 64 µg/mL |
| Cl.N[C@H]1CC[C@H](Nc2nc(-n3cnc4cc(Cl)c(Cl)cc43)c3nc[nH]c3n2)CC1 [Example 8, Trans-N-[6-(5,6-dichloro-1H-benzimidazol-1-yl)-9H-purin-2-yl]-1,4-cyclohexanediamine hydrochloride] | 1300 nM | 98% | 93% | 2 µM | 16 µg/mL | 16 µg/mL |
